Patent US7285687B2 (priority 2002, dated 2007)

Key:
[1] = target: T1, CB2 receptor (Homo sapiens, UniProt P34972); assay: CB2 binding procedure, displacement of [3H]CP-55,940 from membranes of transfected CHO cells; details: for CB1/CB2: ratio of CB1 Ki to CB2 Ki; for Ki: Table 6, read-out: CB2 KI
T1 construct: expressed in transfected cells
Procedure: Membranes for CB2 binding were obtained from CHO cells. The transfected cell line was maintained in Dublecco's Modified Eagle Medium (Gibco BRL, Grand Island, N.Y.) with 10% fetal clone II (HyClone Laboratories, Inc., Logan, Utah) plus 0.3 to 0.5 mg/ml G418 (to maintain selective pressure) under 5% CO2 at 37% C. Cells were harvested with 1 mM EDTA in phosphate-buffered saline and were centrifuged at 1000×g for 5 min at 4% C. The supernatant was saved and the P1 pellet was resuspended in centrifugation buffer. Homogenization and centrifugation were repeated twice and the combined supernatant fractions were centrifuged at 40,000×g for 30 min at 4% C. The P2 pellet was resuspended in centrifugation buffer 2 (Tris HCl, 50 mM; EDTA, 1 mM; and MgCl2, 3 mM, pH 7.4) to a protein concentration of approximately 2 mg/ml. Protein concentrations were determined by the method of Bradford (1976) using Bio-Rad Protein Assay (Bio-Rad, Richmond, Calif.) and BSA standards (fatty acid free, Sigma Chemical Co., St. Louis, Mo.). The membrane preparation was divided into amounts convenient for binding assays and frozen rapidly in dry ice and stored at −80% C.
Binding was initiated by the addition of 50•g of quickly thawed P2 membranes to test tubes containing [^3H]CP-55,940 (final reaction concentration 0.5 nM), an appropriate concentration of unlabeled CP-55,940 or test drug, and sufficient quantity of assay buffer (50 mM Tris-HCl, 1 mM EDTA, 3 mM MgCl2, 5 mg/ml bovine serum albumin, pH 7.4) to bring the total incubation volume to 0.5 ml. Concentration of [^3H]CP-55,940 in saturation studies ranged from 50 to 10,000 pM. […] CP-55,940 and all cannabinoid analogs were-prepared by suspension in assay buffer from a 1 mg/ml ethanolic stock without evaporation of the ethanol (final concentration of no more than 0.4%). In competition studies, analog concentrations ranged from 0.1 nM to 10•M. After incubation at […] for 1 hr, binding was terminated by the addition of 2 ml of ice-cold wash buffer (50 mM Tris-HCl and 1 mg/ml BSA) and vacuum filtration through pre-treated filters in a 12-well sampling manifold (Millipore, Bedford, Mass.). Reaction vessels were washed once with 2 ml of ice-cold wash buffer. Filters were placed into 7-ml plastic scintillation vials (RPI Corp., Mount Prospect, Ill.) with 4 ml of Budget-Solve (RPI Corp.). After shaking for 30 min, the radioactivity present was determined by liquid scintillation spectrometry. Three reaction vessels were used for each drug concentration in each assay. The results represent the combined data of three independent experiments. All assays were performed in siliconized test tubes, which were prepared by air drying (12 hr) inverted borosilicate tubes after two rinses with a 0.1% solution of AquaSil (Pierce, Rockford, Ill.). The GF/C glass-fiber filters (2.4 cm, Baxter, McGaw Park, Ill.) were pre-treated in a 0.1% solution of pH 7.4 polyethylenimine (Sigma Chemical Co.) for at least 6 hr.
(§1) In addition, multiple linear regression was used to calculate the overall degree of relationship between CB1 binding affinity and potency in the mouse measures for all active cannabinoids. […] Ki values for CB1 and CB2 binding were obtained from Scatchard displacement analysis as determined via EBDA program of the KELL software package (Biosoft, Milltown, N.J.).

[2] = target: T2, CB1 receptor (Rattus norvegicus, UniProt P20272); assay: CB1 binding procedure, displacement of [3H]CP 55,940 from rat whole-brain P2 membranes; details: for Ki: Table 6, read-out: CB1 KI
T2 construct: whole brain was homogenized and centrifuged; from tissue; host or cells: whole brain of male Sprague-Dawley rats, P2 membrane fraction
T2 sequence (P20272 whole entry): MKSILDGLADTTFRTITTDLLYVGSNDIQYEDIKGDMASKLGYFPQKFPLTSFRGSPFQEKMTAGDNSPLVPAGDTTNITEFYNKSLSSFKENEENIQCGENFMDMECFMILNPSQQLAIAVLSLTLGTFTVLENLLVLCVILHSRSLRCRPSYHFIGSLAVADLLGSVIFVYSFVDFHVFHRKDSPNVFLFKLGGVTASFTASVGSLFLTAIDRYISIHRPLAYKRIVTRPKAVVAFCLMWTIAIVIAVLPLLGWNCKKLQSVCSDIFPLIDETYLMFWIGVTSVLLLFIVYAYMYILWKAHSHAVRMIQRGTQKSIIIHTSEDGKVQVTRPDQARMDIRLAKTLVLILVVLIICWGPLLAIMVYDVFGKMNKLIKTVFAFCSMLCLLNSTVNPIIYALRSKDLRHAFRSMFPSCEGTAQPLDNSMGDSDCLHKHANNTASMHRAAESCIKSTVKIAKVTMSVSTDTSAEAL
Procedure: Male ICR mice (25-32 g), obtained from Harlan (Dublin, Va.), were housed in groups of five. All animals were kept in a temperature-controlled (20-22° C.) environment with a 12-hour light-dark cycle (lights on at 7 a.m.). Separate mice were used for testing each drug dose in the in vivo behavioral procedures. Brain tissue for binding studies was obtained from male Sprague-Dawley rats (150-200 g) purchased from Harlan Laboratories (Dublin, Va.).
The methods used for tissue preparation and binding have been described previously (Compton et al., 1993) and are similar to those described by Devane et al. (1988). All assays, as described briefly below, were performed in triplicate, and the results represent the combined data from three to six individual experiments.
Following decapitation and rapid removal of the brain, whole brain was homogenized and centrifuged. The resulting pellet was termed P1. The supernatant was saved and combined with the two subsequent supernatants obtained from washing of the P1 pellet. The combined supernatant fractions were centrifuged, resulting in the P2 pellet. After further incubation and centrifuging, this pellet was resuspended in assay buffer to a protein concentration of approximately 2 mg/ml. The membrane preparation was quickly frozen in a bath solution of dry ice and 2-methylbutane (Sigma Chemical Co., St. Louis, Mo.), then stored at −80° C. for no more than 2 weeks. Prior to performing a binding assay an aliquot of frozen membrane was rapidly thawed and protein values determined by the method of Bradford (1976).
Binding was initiated by the addition of 150•g of P2 membrane to test tubes containing 1 nM of [^3H] CP 55,940 (79 Ci/mmol) and a sufficient quantity of buffer to bring the total incubation volume to 1 ml. […] Following incubation at 30° C. for 1 hr, binding was terminated by addition of ice cold buffer and vacuum filtration through pretreated filters in a 12-well sampling manifold (Millipore, Bedford, Mass.). After washing, filters were placed into plastic scintillation vials (Packard, Downer Grove, Ill.) and shaken. The quantity of radioactivity present was determined by liquid scintillation spectrometry.
as §1

T1 sequence (P34972 whole entry): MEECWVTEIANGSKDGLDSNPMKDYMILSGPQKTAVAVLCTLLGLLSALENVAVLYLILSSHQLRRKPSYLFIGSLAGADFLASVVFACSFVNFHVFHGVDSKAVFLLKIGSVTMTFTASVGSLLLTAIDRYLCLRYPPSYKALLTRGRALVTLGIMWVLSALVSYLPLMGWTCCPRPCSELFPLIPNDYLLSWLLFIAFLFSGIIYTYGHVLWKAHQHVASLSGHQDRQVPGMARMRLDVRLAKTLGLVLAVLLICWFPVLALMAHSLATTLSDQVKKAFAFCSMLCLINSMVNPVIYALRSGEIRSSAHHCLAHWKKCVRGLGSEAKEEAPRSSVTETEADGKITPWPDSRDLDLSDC

| SMILES | CB1/CB2 [1] | also measured |
| --- | --- | --- |
| CCCCCCC(C)(C)c1cc(O)c(C2CCCC(C)C2)c(O)c1 (mixture of isomers) [O-1657, 2-(3-Methylcyclohexyl)-5-(1′,1′-dimethylheptyl)-resorcinol] | 17 |  |
| CCCCCCC(C)(C)c1cc(O)c(C2CCCC(C)C2)c(O)c1 (single isomer, unassigned) [O-1798B, 2-(3-Methylcyclohexyl)-5-(1′,1′-dimethylheptyl)-resorcinolisomer B] | 8 | Ki [2]: 0.00433 ± 0.00058 µM |
| CCCCCCC(C)(C)c1cc(OC)c(C2(O)CCC(O)CC2)c(OC)c1 (single isomer, unassigned) [O-2116A, 1-[4-(1,1-Dimethyl-heptyl)-2,6-dimethoxy-phenyl]-cyclohexane-1,4-olol (A)] | 21 |  |
| C=C(C)[C@@H]1CCC(C)=CC1c1c(O)cccc1O (single isomer, unassigned; (-)) [O-1847, (-)-2-(3-3,4-trans-p-menthadien-(1,8)-yl)-resorcinol] |  | Ki [2]: > 10 µM |
| C=C(C)[C@@H]1CCC(C)=CC1c1ccc(O)cc1O (single isomer, unassigned; (-)) [O-1848, (-)-4-(3-3,4-trans-p-menthadien-(1,8)-yl)-resorcinol] |  | Ki [2]: > 10 µM |
| C=C(C)[C@@H]1CCC(C)=CC1c1c(O)c(I)c(C)c(I)c1O (single isomer, unassigned; (-)) [O-1868, (-)-2-(3-3,4-trans-p-menthadien-(1,8)-yl)-1,6-dipdoorcinol] |  | Ki [2]: > 10 µM |
| CCCCCCC(C)(C)c1cc(O)c(C2CCCC(C)C2)c(O)c1 (single isomer, unassigned; isomer a) [O-1797A, 2-(3-Methylcyclohexyl)-5-(1′,1′-dimethylheptyl-resorcinol isomer A] | 12 | Ki [1]: 0.44 ± 0.03 nM |
| CCCCCCC(C)(C)c1cc(O)c([C@H]2CCCC(C)C2)c(O)c1 (stereo in doubt) [O-1826, 2-(3R-Methylcyclohexyl)-5-(1′,1′-dimethylheptyl)-resorcinol] | 50 |  |
| CCCCCCC(C)(C)c1cc(OC)c(C2(O)CCC[C@@H](C)C2)c(OC)c1 (stereo in doubt) [compound 2137, 1-[4-(1,1-Dimethyl-heptyl)-2,6-dimethoxy-phenyl]-3-methyl-cyclohexanol] |  | Ki [2]: 2.67 ± 0.145 µM; Ki [1]: 11 ± 2.18 nM |
| CCCCCCC(C)(C)c1cc(O)c(C2CCCCC2)c(O)c1 [O-1422, Cyclohexyl-5-(1′,1′-dimethylheptyl)-resorcinol] | 7 |  |
| CCCCCCC(C)(C)c1cc(O)c(C2=CCCCC2)c(O)c1 [O-1423] | 3 |  |
| CCCCCCC(C)(C)c1cc(O)c(C2CCSCC2)c(O)c1 [O-1425] | 13 | fold decrease in CB1 affinity ([2]; compared to O-1422): 14 fold; fold decrease in CB2 affinity ([1]; compared to O-1422): 8 fold |
| CCCC(C)(C)c1ccc(-c2cc(C)ccc2C(C)C)c(O)c1 [O-1532, 3-1′,1′-Dimethylbutyl-6-(2-isopropyl-5-methyl-phenyl)-phenol] | 8 |  |
| CCCCCCC(C)(C)c1ccc(-c2cc(CO)ccc2C(C)C)c(O)c1 [O-1601, 3-1′,1′-Dimethylhepyl-6-(2-isopropyl-5-hydroxy-methylphenyl)-phenol] | 2 |  |
| CCCCCCC(C)(C)c1cc(O)c(C2CCCCC2C)c(O)c1 (stereo not drawn) [O-1658, 2-(2-Methylcyclohexyl)-5-(1′,1′-dimethylheptyl)-resorcinol] | 16 |  |
| CCCCCCC(C)(C)c1cc(O)c(C2CCC(C)CC2)c(O)c1 (stereo not drawn) [O-1659, 2-(4-Methylcyclohexyl)-5-(1′,1′-dimethylheptyl)-resorcinol] | 9 |  |
| CCCCCCC(C)(C)c1cc(O)c(C2C3CC4CC(C3)CC2C4)c(O)c1 (stereo not drawn) [O-1660, 2-(2-Adamantanyl)-5-(1′,1′-di-methylheptyl)-resorcinol] | 2 | Ki [2]: 0.0075 ± 0.0012 µM; Ki [1]: 3.16 ± 0.81 nM |
| CCCCCCC(C)(C)c1cc(O)c(C2CCC(c3ccccc3)CC2)c(O)c1 (stereo not drawn) [O-1663, 2-(4-Phenylcyclohexyl)-5-(1′,1′-dimethylheptyl)-resorcinol] | 16 |  |
| CCCC(C)(C)c1cc(O)c(C2CCCC(C)C2)c(O)c1 (stereo not drawn) [O-1890, 2-(3-Methylcyclohexyl)-5-(1′,1′-dimethylbutyl)-resorcinol] | 7 |  |
| CCCCCCC(C)(C)c1cc(OC)c(C2CCCC(C)C2)c(OC)c1 (stereo not drawn) [O-1999, 5-(1,1-Dimethyl-heptyl)-1,3-dimethoxy-2-(3-methyl-cyclohexyl)-benzeno] |  | fold reduction in affinity for CB2 receptors ([1]; compared to O-1657): ~600 fold |
| CCCCCCC(C)(C)c1cc(OC)c(C2(O)CCCC(C)(C)C2)c(OC)c1 (stereo not drawn) [O-2068, 1-[4-(1,1-Dimethylheptyl)-2,6-dimethoxyphenyl]3,3-dimethyl-cyclohexanol] | 47 |  |
| CCCCCCC(C)(C)c1cc(OC)c(C2(O)CCCCC2)c(OC)c1 [O-2072, 1-[4-(1,1-Dimethylheptyl)-2,6-dimethoxyphenyl]-cyclohexanol] | 55 |  |
| CCCCCCC(C)(C)c1cc(OCC)c(C2(O)CCCC(C)C2)c(OCC)c1 (stereo not drawn) [O-2090, 1-[4-(1,1-Dimethylheptyl)-2,6-dietlphenyl]-3-methyl cyclohexane-1-ol] | 10 |  |
| CCCCCCC(C)(C)c1cc(OC)c(C2(O)CCCCCC2)c(OC)c1 [O-2091, 1-[4-(1,1-Dimethylheptyl)-2,6-dimephenyl]-cycloheptan-1-ol] | 50 |  |
| CCCCCCC(C)(C)c1cc(OC)c(C2(O)CCC3(CC2)OCCO3)c(OC)c1 [O-2092, 8-[4-(1,1-Dimethylheptyl)-2,6-dimephenyl]-1,4-dioxaspiro[4,5]decan-] | 36 |  |
| CCCCCCC(C)(C)c1cc(OC)c(C2=CCC(=O)CC2)c(OC)c1 [O-2114, 4-[4-(1,1-Dimethyl-heptyl)-2,6-dimethoxy-phenyl]-cyclohex-3-enone] | 5 |  |
| CCCCCCC(C)(C)c1cc(OC)c(C2(O)CC(C)CC(O)C2)c(OC)c1 (stereo not drawn) [O-2121] | 20 |  |
| CCCCCCC(C)(C)c1cc(OC)c(C23CCC(O)CC2O3)c(OC)c1 (stereo not drawn) [O-2122, 6-[4-(1,1-Dimethyl-heptyl)-2,6-dimethoxy-phenyl]-7-oxa-bicyclo[4 1 0]heptan-3-ol] | 4 |  |
| CCCCCCC(C)(C)c1cc(OC)c(C2(O)CC(=O)CC(C)C2)c(OC)c1 (stereo not drawn) [O-2123, 3-[4-(1,1-Dimethyl-heptyl)-2,6-dimethoxy-phenyl]-3-hydroxy-5-methyl-cyclohexanone] | 14 | Ki [2]: 7.33 ± 0.117 µM |
| COc1cc(C)cc(OC)c1C1(O)CCCCC1 [O-2298, 1-(2,6-Dimethoxy-4-methyl-phenyl)-cyclohexanol] |  | Ki [2]: > 10 µM; Ki [1]: > 10000 nM |
